Measurements: patent US8618169B2, “Derivatives of N-phenylanthranilic acid and 2-benzimidazolone as potassium channel and/or neuron activity modulators” (Ramot at Tel-Aviv University Ltd., priority 2002, dated 2013)
Where “and” joins values, the source holds several entries; their conditions need not be identical. Equal entries are not always repeated.

Assays:
[1] = system: electroshock-induced seizures; assay: Maximal electroshock seizure (MES) test in ICR mice; type: in vivo
Experimental: All animals were treated in accordance with the Guide for the Care and Use of Laboratory Animals as adopted and promulgated by the U.S. National Institutes of Health. The procedures followed for experimentation and maintenance of the animals were approved by the animal research ethics committee of Tel Aviv University and in accordance with the Guide for the Care and Use of Laboratory Animals (1996. National Academy of Sciences, Washington D.C). […] electroshock were induced in adult mice by means of two transcorneal electrodes delivering an alternative current of 50 mA at 60 Hz for 0.2 sec using rodent shocker (Hugo Sachs Electronik, type 221). […] The tested compounds were dissolved in 0.9% saline were administered intraperitoneally either 30 minutes or 2 hours before the electroshock was performed. Animals failing to show tonic hind limb extension were scored as protected and were expressed in percentage.
Five groups of 10 ICR mice each received intraperitoneally saline (control) or meclofenamic acid (Compound 1) at 25 mg/kg, 50 mg/kg, 100 mg/kg and 150 mg/kg and were subjected 30 minutes later to an electric shock (50 mA, 0.2 second duration, 60 Hz).
In view of the strong depressing activity of Compound 6 on cortical neurons, the anticonvulsant activity in mice subjected to seizures produced by electroshock was examined, using the MES test described above. Compound 6 dissolved in saline was injected intraperitoneally (in a volume of 10 ml/kg) at doses ranging from 6 mg/kg to 20 mg/kg to ICR adult mice and its anticonvulsant activity was compared with saline. Twenty minutes after drug administration, seizures were produced by electroshock (50 mA, 0.2 second duration, 60 Hz).

M-current = target: T1, M-current (Rattus norvegicus, UniProt O88943+O88944); assay: Native M-current of cultured rat cortical neurons, voltage-clamp; type: cell-based
T1 construct: the native M-current from pyramidal-like neurons was recorded; endogenous in cells; host or cells: primary cortical neurons from Sprague Dawley rat embryos (E18)

KCNQ2/3 channels = target: T2, KCNQ2/3 channels (Homo sapiens, UniProt O43525+O43526); assay: KCNQ2/3 current in transfected CHO cells, whole-cell patch-clamp; type: cell-based
T2 construct: expressed in transfected cells; host or cells: CHO cells

rat cortical neurons = assay: Evoked and spontaneous action potential activity of cultured rat cortical neurons, current-clamp; type: cell-based
KCNQ2/Q3 = KCNQ2/Q3 (Homo sapiens, UniProt O43525+O43526); assay: KCNQ2/Q3 current in Xenopus oocytes, two-electrode voltage-clamp; type: cell-based; design: expressed in transfected cells; host or cells: Xenopus oocytes (cRNA microinjection); conditions: for increase of KCNQ2/Q3 currents: at −40 mV
Experimental: Current measurements in Xenopus oocytes were performed as described in the art [Peretz et al. J. Physiol 545:751-766 (2002)]. Briefly, two-electrode voltage-clamp measurements were performed 3-5 days following cRNA microinjection into oocytes. Oocytes were bathed in a modified ND96 solution containing (in mM): 96 NaCl, 2 KCl, 1 MgCl2, 0.1 CaCl2 and 5 HEPES titrated to pH=7.4 with NaOH. Whole-cell currents were recorded at room temperature (20° C.-22° C.) using a GeneClamp 500 amplifier (Axon Instruments, Foster City, Calif., USA). Glass microelectrodes (A-M Systems, Inc., Carlsborg, Wis., USA) were filled with 3M KCl and had tip resistances of 0.5-1.5 MΩ. Stimulation of the preparation, data acquisition and analyses were performed using the pCLAMP 6.02 software (Axon Instruments, Foster City, Calif., USA) and a 586 personal computer Pentium 4 interfaced with a Digidata 1200 interface (Axon Instruments, Foster City, Calif., USA). Current signals were filtered at 0.5 kHz and digitized at 2 kHz.
Data analysis was performed using the Clampfit program (pClamp 8.1, Axon Instruments, Foster City, Calif., USA), Microsoft Excel 98 (Microsoft Corp., Redmond, Wash., USA), Axograph 4.6 (Axon Instruments, Foster City, Calif., USA) and Prism 2.0 (GraphPad, San Diego, Calif., USA). Leak subtraction was performed off-line, using the Clampfit program of the pClamp 8.1 software. To analyze the KCNQ2/3 channel deactivation, a single exponential fit was applied to the tail currents. Chord conductance (G) was calculated by using the equation: G=I/(V−Vrev) where I corresponds to the current amplitude measured at the end of the pulse and Vrev, the calculated reversal potential assumed to be −90 mV in CHO cells and −98 mV in Xenopus oocytes. G was estimated at various test voltages V and then, normalized to a maximal conductance value, Gmax, calculated at +40 mV. Activation curves were fitted by a Boltzmann distribution: G/Gmax=1/{1+exp[(V50−V)/s]} where V50 is the voltage at which the current is half-activated and s is the slope factor. All data were expressed as mean±SEM. Statistically significant differences were assessed by Student's t-test.
Data are expressed as mean±SEM of 5-8 separate experiments.

[2] = 100 μM, prepulse −20 mV, tail −60 mV

O=C(Cc1ccccc1Nc1c(Cl)cccc1Cl)NCCOCCO [Compound 6]
ED50 ([1]; Mus musculus, intraperitoneal 6-20 mg/kg, twenty minutes before electroshock, read-out: ED50 of protective effect against seizures): 8.7 mg/kg
negative shift in the threshold of M-current activation (M-current; cortical neurons, from −50 mV to −70 mV): approximately 20 mV
leftward shift in the voltage-dependence of KCNQ2/3 activation (KCNQ2/3 channels; 25 μM, CHO cells): about 13 mV
V50 of KCNQ2/3 activation with compound (KCNQ2/3 channels; 25 μM, CHO cells, control −30.9±4.1 mV): −43.45±2.3 mV
increase of the current amplitude (KCNQ2/3 channels; 25 μM, train protocol, stepped to −50 mV): up to 220%
effect on deactivation kinetics of KCNQ2/3 channels (KCNQ2/3 channels; CHO cells): slowed down
EC50 (KCNQ2/3 channels; at −50 mV, CHO cells, read-out: EC50 of concentration-dependent current increase): 7 ± 1 µM
effect on evoked and spontaneous cortical neuron activity (rat cortical neurons): depress
effect on spontaneous action potentials (rat cortical neurons; 5 μM-20 μM, within less than 2 minutes): profound depression of spontaneous action potentials
effect on number of evoked action potentials (rat cortical neurons; 10 μM): reduced drastically and reversibly
increase of KCNQ2/Q3 currents (KCNQ2/Q3; 25 μM): 1.95 fold

Cc1ccc(Cl)c(Nc2ccccc2C(=O)O)c1Cl [Compound 1, Meclofenamic acid]
% Protection ([1]; 50 mg/kg i.p., 30 minutes before electroshock): 17% and 17 (6) %
% Protection ([1]; 100 mg/kg i.p., 30 minutes before electroshock): 75 (5) %
% Protection ([1]; 100 mg/kg i.p., 2 hours before electroshock): 25 (4) %
adverse effect in mice ([1]; 150 mg/kg intraperitoneally): sedation
% Protection ([1]; 200 mg/kg i.p., 30 minutes before electroshock): toxic
% Protection ([1]; 200 mg/kg i.p., 2 hours before electroshock): toxic
mice protected from electroshock ([1]; Example 9: 50 mg/kg intraperitoneally, 30 minutes before shock): 50%
protection from electroshock seizures ([1]; Example 9: 100 mg/kg intraperitoneally, 30 minutes before shock): fully prevented seizures
toxic effects at high doses ([1]; mouse, in vivo): pro-convulsive toxic effects and hyperactivity
enhancement of the linopirdine-sensitive outward current (M-current; 10 μM, step from −80 mV to −40 mV): 465±134 percents of control
V50 of KCNQ2/3 current activation with compound (KCNQ2/3 channels; 100 μM, CHO cells): −42.34±2.08 mV
leftward shift in the voltage-dependence of KCNQ2/3 current activation (KCNQ2/3 channels; 100 μM, CHO cells): 22.7 mV
slope parameter s of the Boltzmann fitting curve (KCNQ2/3 channels; 100 μM, CHO cells): −10.50±0.93 mV/e fold
increase of the time constant for deactivation (KCNQ2/3 channels; [2]): about 2 fold
time constant for deactivation τdeact with compound (KCNQ2/3 channels; [2]): 167.5 ± 11.6 ms
effect on KCNQ2/3 activation kinetics (KCNQ2/3 channels; CHO cells): did not affect
voltage threshold of KCNQ2/3 current activation upon exposure (KCNQ2/3 channels; CHO cells, control −50 mV): about −60 mV
increase of KCNQ2/3 current amplitude (KCNQ2/3 channels; at −30 mV, CHO cells): > 2.5 fold
increase of KCNQ2/3 current amplitude (KCNQ2/3 channels; at −40 mV, CHO cells): > 5 fold
increase of KCNQ2/3 current amplitude (KCNQ2/3 channels; at −50 mV, CHO cells): more than 10 fold
increase in KCNQ2/3 current amplitude (KCNQ2/3 channels; potentials around −60/−50 mV): more than 10 fold
increase of the current amplitude (KCNQ2/3 channels; train protocol, cells stepped to −20 mV): up to 72%
KCNQ2/3 current amplitude with compound (KCNQ2/3 channels; train protocol, stepped to −20 mV, control 844±130 pA): 1451±164 pA
effect on spontaneous spiking activity (rat cortical neurons; 10 μM): completely but reversibly inhibited
number of evoked action potentials with compound (rat cortical neurons; 10 μM, 100 pA depolarizing current for 800 mseconds, control 20±1): 1±1
effect on evoked potentials (rat cortical neurons; 5-20 μM): reversibly inhibited
leftward shift in the voltage-dependence of KCNQ2/Q3 current activation (KCNQ2/Q3; 25 μM, Xenopus oocytes): −15.9 mV
V50 of KCNQ2/Q3 current activation with compound (KCNQ2/Q3; 25 μM, Xenopus oocytes, control −28.6±2.9 mV): −44.5±3.1 mV
increase of KCNQ2/Q3 currents (KCNQ2/Q3; 25 μM): 1.75 fold
increase in KCNQ2/Q3 current amplitude (KCNQ2/Q3; 25 μM, oocyte membrane stepped from −80 mV to −40 mV): 53±8%
oocyte resting membrane potential after compound (KCNQ2/Q3; increasing concentrations, from −56±2 mV): −72±3 mV
EC50 (KCNQ2/Q3; increasing concentrations, read-out: EC50 of hyperpolarization of the oocyte resting membrane potential): 11.7 ± 5.2 µM
